From US7351398B2, “Stabilization of radiopharmaceutical compositions using hydrophilic thioethers” (CIS bio international, priority 2000, dated 2008)

Experiments:
[1] = Radiochemical purity (RCP) by reversed phase HPLC of 99mTc-labelled depreotide kits with gentisic acid; type: physicochemical; conditions: included in formulated kits
Method: Lyophilized kit vials were prepared containing depreotide, GA, and other components as described in Table 1. Formulations were adjusted to pH 7.4 or 8.5 (as noted) prior to lyophilization.

[2] = HPLC RCP of 99mTc-labelled depreotide with hydrophilic thioether additives; type: physicochemical; conditions: for 3.5 hr RCP / 6.5 hr RCP / Initial RCP: 99mTc-depreotide kit, additive 4 mg in 100 μL, heated
Method: [drawing 16] These compounds and L-methionine were tested for their ability to stabilize ^99mTc-labelled depreotide. Each hydrophilic thioether was dissolved in water made up at 40 mg/mL and adjusted to pH 7 with HCl or NaOH. Each hydrophilic thioether (4 mg in 100 μL) was added to a formulated kit vial containing the peptide (“control” formulation in Table 1). To the control vials were added 100 μL water.

[3] = HPLC RCP of 99mTc-labelled depreotide kits with L-methionine; conditions: formulated kits stored under normal conditions (≦−10° C.)
Method: Lyophilized kit vials were prepared containing depreotide, L-methionine (Met), and other components as described in Table 3. All formulations were adjusted to pH 7.4 prior to lyophilization.
The lyophilized kits were radiolabelled with ^99mTc by reconstitution with 1.0 mL technetium ^99mTc sodium pertechnetate (Technelite®) containing approximately 50 mCi ^99mTc and heating in a boiling water bath for 10 minutes. Some of the formulations were also radiolabelled in a room temperature preparation (allowed to stand at room temperature 30 minutes following reconstitution).

[4] = HPLC RCP of 99mTc-labelled depreotide kits with L-methionine after accelerated temperature (40° C.) kit storage; type: physicochemical; conditions: lyophilized kits stored at 40° C. prior to radiolabelling
Method: Lyophilized kits were prepared containing depreotide, L-methionine (Met), and other components as described in Table 5. All formulations were adjusted to pH 7.4 prior to lyophilization. The kits were stored for one week at 40° C. Some kits were also stored at −10° C. as controls.
The lyophilized kits were radiolabelled with ^99mTc by reconstitution with 1.0 mL technetium ^99mTc sodium pertechnetate (Technelite®) containing approximately 50 mCi ^99mTc and incubation in a boiling water bath (10 min).

[5] = HPLC RCP of 99mTc-labelled benzodiazepinedione derivative kits with L-methionine; type: physicochemical; conditions: formulated kits
Method: L-methionine was tested for its ability to stabilize a ^99mTc-labelled glycoprotein IIb/IIIa receptor-binding benzodiazepinedione derivative 1-[(carboxyglycyl-glycyl-glycyl-cysteinamide)methyl]-4-(2-carboxyethyl)-7-[(4-amidinophenyl)methyl]-3,4-dihydro-1H-1,4-benzodiazepine-2,5-dione trifluoroacetate, having the structure.
All formulations were adjusted to pH 7.4 prior to lyophilization.
The lyophilized kits were radiolabelled with ^99mTc by reconstitution with 1.0 mL technetium ^99mTc sodium pertechnetate (Technelite®) containing approximately 50 mCi ^99mTc and heating in a boiling water bath for 10 minutes.

[6] = HPLC RCP of 99mTc-labelled glycoprotein IIb/IIIa receptor-binding peptide with L-methionine; type: physicochemical
Method: L-methionine was tested for its ability to stabilize a ^99mTc-labelled glycoprotein IIb/IIIa receptor-binding peptide having the structure.
Lyophilized kit vials were prepared containing the peptide (50 μg), sodium glucoheptonate dihydrate (10 mg), stannous chloride dihydrate (50 μg), and edetate disodium dihydrate (100 μg). The formulation was adjusted to pH 7.4 prior to lyophilization.
The lyophilized kits were radiolabelled with ^99mTc in the presence and absence of L-methionine. To the Met preparation was added 4 mg methionine (in 100 μL saline) and 100 μL ethanol. To the control preparation was added 100 μL ethanol and 100 μL saline to account for the additional saline or ethanol added with the L-methionine. Both vials were then reconstituted with 1.0 mL technetium ^99mTc sodium pertechnetate (Technelite®) containing approximately 50 mCi ^99mTc and allowed to incubate for 30 minutes at room temperature.

[7] = HPLC RCP of 99mTc-labelled monoamine, diamide, single thiol peptide chelator with L-methionine; type: physicochemical
Method: L-methionine was tested for its ability to stabilize a ^99mTc-labelled monoamine, diamide, single thiol peptide chelator having the structure.
Lyophilized kit “placebo” vials were prepared containing sodium glucoheptonate dihydrate, edetate disodium dihydrate, and stannous chloride dihydrate at the concentrations set forth in Table 1 (control formulation).
The peptide chelator was radiolabelled with ^99mTc in the presence and absence of L-methionine. The peptide chelator was dissolved in water at a concentration of 1 mg/mL, and 50 μg (50 μL) of the peptide was added to each of three placebo vials. Ethanol and L-methionine were added to the control and methionine preparations as described in Example 5. In addition, 100 μL phosphate buffered saline (PBS) was added to each preparation. The vials were reconstituted with 0.9-1.0 mL ^99mTc sodium pertechnetate (Technelite®) containing approximately 50 mCi ^99mTc, and heated in a boiling water bath for ten minutes.

[8] = HPLC RCP of 99mTc-labelled bisamine bisthiol non-peptide chelator with L-methionine; type: physicochemical
Method: L-methionine was tested for its ability to stabilize a ^99mTc-labelled non-peptide chelator (4-(butanoic acid)-2,2,9,9 tetramethyl-4,7-diaza-1,10-decanedithiol) having the structure.
The non-peptide chelator was radiolabelled with ^99mTc in the presence and absence of L-methionine using the placebo vial heated preparation procedure as described in Example 6.

Effect on radiolabelling yield and stability of 99mTc-labelled peptide (depreotide) [2]	3.5 hr RCP [2] [%]	6.5 hr RCP [2] [%]	Initial RCP [2] [%]	SMILES	also measured
–	–	–	–	O=C(O)c1cc(O)ccc1O [gentisic acid, Gentisic acid]	Effect on radiolabelling yield and stability of 99mTc-depreotide [1]: decreases
no effect	–	–	–	CSCCC=O [3-(methylthio)propionaldehyde, reference compound]	–
increase	93.9	90.7	94.1	CSCC[C@H](N)CO [Methioninol, methioninol]	–
no effect	–	–	–	C[S+]([O-])CC[C@H](N)C(=O)O (stereo partly drawn) [Methionine sulfoxide, reference compound]	–
increase	84	80.9	89.1	CSCC(O)CO (stereo not drawn) [3-Methylthio-1,2-propanediol, 3-methylthio-1,2-propanediol]	–
increase	94.2	93.3	92.8	CCSCCN [2-(Ethylthio)ethylamine]	–
no effect	–	–	–	CS(=O)(=O)CC[C@H](N)C(=O)O [methionine sulfone, reference compound]	–

SMILES	Effect on radiolabelling yield and stability of 99mTc-labelled peptide (depreotide) [2]	3.5 hr RCP [2] [%]	6.5 hr RCP [2] [%]	Initial RCP [2] [%]	also measured
CSCC[C@H](N)C(=O)O [L-methionine]	–	90.4	89.3	95	Effect on radiolabelling yield and stability of 99mTc-depreotide [3]: increases; Stabilization of 99mTc-depreotide [4]: does not stabilize; Effect on radiolabelling yield and stability of 99mTc-labelled benzodiazepinedione derivative [5]: increases; Effect on radiolabelling yield and stability of the 99mTc-peptide [6]: increases; HPLC RCP (%) 0.5 hr ([6]; 99mTc-GPIIb/IIIa peptide, 4 mg methionine or none, room temperature 30 min, 0.5 hr): 96.7%; HPLC RCP (%) 3.5 hr ([6]; 99mTc-GPIIb/IIIa peptide, 4 mg methionine or none, room temperature 30 min, 3.5 hr): 96.9%; HPLC RCP (%) 6.5 hr ([6]; 99mTc-GPIIb/IIIa peptide, 4 mg methionine or none, room temperature 30 min, 6.5 hr): 96.2%; Effect on radiolabelling yield and stability of 99mTc-labelled peptide chelator [7]: increases; HPLC RCP (%) 0.5 hr ([7]; 99mTc-peptide chelator, 4 mg L-methionine or none, heated, 0.5 hr): 98.4%; HPLC RCP (%) 3 hr ([7]; 99mTc-peptide chelator, 4 mg L-methionine or none, heated, 3 hr): 97.2%; HPLC RCP (%) 6 hr ([7]; 99mTc-peptide chelator, 4 mg L-methionine or none, heated, 6 hr): 95.5%; HPLC RCP (%) 9 hr ([7]; 99mTc-peptide chelator, 4 mg L-methionine or none, heated, 9 hr): 92.8%; Effect on radiolabelling yield and stability of 99mTc-labelled non-peptide chelator [8]: increases; HPLC RCP (%) 0.5 hr ([8]; 99mTc-non-peptide chelator, 4 mg methionine or none, heated, 0.5 hr): 66.7%; HPLC RCP (%) 3 hr ([8]; 99mTc-non-peptide chelator, 4 mg methionine or none, heated, 3 hr): 70.0%; HPLC RCP (%) 6 hr ([8]; 99mTc-non-peptide chelator, 4 mg methionine or none, heated, 6 hr): 70.8%; HPLC RCP (%) 9 hr ([8]; 99mTc-non-peptide chelator, 4 mg methionine or none, heated, 9 hr): 70.4%
